Experimental data reported in US20090004137A1, “Uridine Derivatives as Antiviral Drugs Against a Flaviviridae, Especially Hcv” (priority 2004, published 2009).

Tests used:
[1] = Cytotoxicity against CEM cells; format: cell-based; conditions: human
[2] = tested on: subgenomic HCV replicon BM4-5 in Huh7 cells; experiment: Antiviral assay on HCV subgenomic replicon, Northern blot of (+)-strand HCV RNA; format: cell-based, Hepatitis C Virus; conditions: for IC50 / IC90: Hepatitis C virus, 72 h, Huh7 BM4-5 replicon, positive strand HCV RNA by Northern blot, three days treatment; for IC50: read-out: IC50, anti-HCV activity, (+)-RNA; for IC90: read-out: IC90, anti-HCV activity, (+)-RNA; for Selectivity Index (SI), ratio between CC50 and IC50: replicon system
Method: (§1) Antiviral and Cytotoxicity assays for HCV. Huh7 cells harbouring the subgenomic HCV replicon BM4-5 (J. T. Guo et al., J. Virol. 2001, 75: 8516-8523) were used in this study. Cells were maintained in Dulbecco's modified Eagle's medium high glucose 4.5 g/l (LifeTechnlogies) supplemented with 10% fetal bovine serum, 1% L-glutamine, 1% penicillin and streptomycin, 1% L-Pyruvate and 500 μg/ml of geneticien (G418, Invitrogen). Geneticin was used to select cells permitting the HCV RNA replication. Cells were passaged every four days with a 1:4 ratio.
Cells were seeded in 6-wells plates at a density of 2.5×10^5 cells per well, sixteen hours before the beginning of treatment. […] The administration of each drug was renewed every day for three consecutive days. Ribarivin (ICN Pharmaceuticals), mycophenolic acid (MPA, Sigma), and interferon alpha-2b (IntronA®)) were used in the same conditions as positive controls. The concentrations used for these drugs were respectively: 0; 0.5; 1; 2; 4; 8; 16; 32; 64; 128; 256 and 512 μM for ribavirin, 0; 2.5; 5; 10; 20; 40 μM for mycophenolic acid, and 0; 0.1; 1; 10; 100 and 1000 Ul/mL for IFN alpha-2b. Total RNA was extracted at the end of treatment (24 hours after the last day of treatment) with the <<Extract all>> reagent (Eurobio), which is a mix of phenol and guanidium thiocyanate. Northern blot analysis was then performed using the NorthernMax™-Gly kit (Ambion), following manufacturer's instructions. Five micrograms of total RNA were denaturated in glyoxal buffer at 50° C. for 30 minutes, separated by 1.1% agarose gel electrophoresis, and then transferred for 12 hours onto a charged nylon membrane (HybondN+, Amersham). Hybridization was carried out with three different [^32P]CTP-labelled riboprobes obtained by in vitro transcription (Riboprobe in vitro transcription system, Promega). Two probes were complementary to the NS5A region of the HCV genome of negative polarity and positive polarity. A third probe was complementary to the beta-actin mRNA and obtained by in vitro transcription from a specific plasmid (PTRI beta actin human, reference 7424, Ambion). First, the blot was hybridized with the riboprobes directed against the negative strand of HCV RNA and beta-actin mRNA, respectively. After one night of hybridization at 68° C., the membrane was washed, then exposed to X-ray film and a phosphor screen (phosphorimager). This screen was then scanned and quantitative analysis was achieved using ImageQuant software. The amount of beta-actin mRNA was used as an internal loading control to standardize the amount of HCV RNA detected. The same membrane was subsequently hybridized with the […] to determine the level of positive strand HCV RNA, suing the same approach.

[3] = Cytotoxicity against VERO cells; format: cell-based; conditions: African green monkey
[4] = Cell viability (neutral red) on the replicon system; format: cell-based; conditions: human, Huh7 cells harbouring the subgenomic HCV replicon BM4-5, neutral red test, drug renewed daily for three days, read-out: CC50, cytotoxicity on Replicon System
Method: as §1
For cell viability assays, cells were seeded in 96-well plates at a density of 12,500 cells per well. They were treated by the different molecules with the same concentrations and conditions than those used for the antiviral assays. Then, cell viability was measured by neutral red assay. Neutral red specifically colors lysosomes and its accumulation depends on cellular membrane integrity. The yield of neutral red incorporated in cells is proportional to the number of living cells. At the end of treatment, culture medium was removed; cells were washed by PBS, then coloured with neutral red at 0.005% for 3 hours at 37° C. Cells were then fixed 1 minute by formol calcium and lysed by atreatment with a vol/vol mixture of acetic acid and ethanol. After 15 minutes incubation, absorbance was read at 490 nm.

[5] = Cytotoxicity against PBM cells; format: cell-based; conditions: human

SMILES	CC50 [1]	IC50 [2]	IC90 [2]	Selectivity Index (SI), ratio between CC50 and IC50 [2]	CC50 [3]	CC50 at 3 days [4]	CC50 [5]	melting point
O=c1[nH]c(=O)n([C@@H]2O[C@H](CO)[C@@H](O)[C@H]2O)cc1/C(Br)=C\Br [Compound 17b, (E)-5-(1,2-Dibromovinyl)-uridine]	> 100 µM	> 200 µM	> 200 µM	≦1	59.8 µM	> 200 µM	> 100 µM	–
CC(=O)OC[C@@H]1C[C@@H](OC(C)=O)[C@H](n2cc(/C(I)=C\I)c(=O)[nH]c2=O)O1	–	–	–	–	–	–	–	75 to 77 °C
O=c1[nH]c(=O)n([C@@H]2O[C@H](CO)C[C@H]2O)cc1C#CI [Compound 12c, 5-(2-Iodoethynyl)-3′-deoxyuridine]	> 100 µM	> 200 µM	> 200 µM	≦1	3.2 µM	> 200 µM	> 100 µM	–
O=c1[nH]c(=O)n([C@H]2C[C@H](O)[C@@H](CO)O2)cc1/C(Br)=C\Br [Compound 17a, (E)-5-(1,2-Dibromovinyl)-2′-deoxyuridine]	43.9 µM	< 200 µM	> 200 µM	≧1	> 100 µM	> 200 µM	> 100 µM	–
O=c1[nH]c(=O)n([C@H]2C[C@H](O)[C@@H](CO)O2)cc1/C(Br)=C\I [Compound 15a, (E)-5-(1-Bromo-2-iodovinyl)-2′-deoxyuridine]	0.13 µM	> 100 µM	> 100 µM	<1	6.6 µM	43 µM	13.3 µM	–
CC(=O)OC[C@@H]1C[C@@H](OC(C)=O)[C@H](n2cc(C(Br)=CBr)c(=O)[nH]c2=O)O1	–	–	–	–	–	–	–	78 to 80 °C
O=c1[nH]c(=O)n([C@@H]2O[C@H](CO)[C@@H](O)[C@H]2O)cc1/C(Br)=C\I [Compound 15b, (E)-5-(1-Bromo-2-iodovinyl)-uridine]	93.6 µM	> 100 µM	> 100 µM	≦1	> 100 µM	> 100 µM	> 100 µM	–
CC(=O)OC[C@H]1O[C@@H](n2cc(/C(I)=C\I)c(=O)[nH]c2=O)C[C@@H]1OC(C)=O	–	–	–	–	–	–	–	76 to 78 °C
O=c1[nH]c(=O)n([C@@H]2O[C@H](CO)C[C@H]2O)cc1/C(I)=C\I [Compound 14c, (E)-5-(1,2-Diiodovinyl)-3′-deoxyuridine]	> 100 µM	> 200 µM	> 200 µM	≦1	42.6 µM	> 200 µM	87.2 µM	–
O=c1[nH]c(=O)n([C@@H]2O[C@H](CO)C[C@H]2O)cc1C#CBr [Compound 13c, 5-(2-Bromoethynyl)-3′-deoxyuridine]	> 100 µM	> 300 µM	> 300 µM	≦1	6.4 µM	> 300 µM	> 100 µM	–
CC(=O)OC[C@H]1O[C@@H](n2cc(/C(Br)=C\I)c(=O)[nH]c2=O)C[C@@H]1OC(C)=O	–	–	–	–	–	–	–	82 to 84 °C
CC(=O)OC[C@H]1O[C@@H](n2cc(C#CI)c(=O)[nH]c2=O)C[C@@H]1OC(C)=O	–	–	–	–	–	–	–	175 to 177 °C (dec.)
O=c1[nH]c(=O)n([C@@H]2O[C@H](CO)C[C@H]2O)cc1/C(Cl)=C\I [Compound 16c, (E)-5-(1-Chloro-2-iodovinyl)-3′-deoxyuridine]	66.6 µM	> 200 µM	> 200 µM	≦1	15.3 µM	> 200 µM	94.4 µM	–
CC(=O)OC[C@H]1O[C@@H](n2cc(/C(I)=C\I)c(=O)[nH]c2=O)[C@H](OC(C)=O)[C@@H]1OC(C)=O	–	–	–	–	–	–	–	83 to 85 °C
O=c1[nH]c(=O)n([C@H]2C[C@H](O)[C@@H](CO)O2)cc1C#CBr [Compound 13a, 5-(2-Bromoethynyl)-2′-deoxyuridine]	> 100 µM	> 200 µM	> 200 µM	≧1	> 100 µM	> 200 µM	> 100 µM	–
CC(=O)OC[C@H]1O[C@@H](n2cc(C#CI)c(=O)[nH]c2=O)[C@H](OC(C)=O)[C@@H]1OC(C)=O	–	–	–	–	–	–	–	100 to 102 °C
COc1c(C)c2c(c(O)c1C/C=C(\C)CCC(=O)O)C(=O)OC2 [MPA, mycophenolic acid, reference compound]	–	40 µM	–	<1	–	7 µM	–	–
CC(=O)OC[C@H]1O[C@@H](n2cc(/C(Br)=C\Br)c(=O)[nH]c2=O)[C@H](OC(C)=O)[C@@H]1OC(C)=O	–	–	–	–	–	–	–	83 to 85 °C
O=c1[nH]c(=O)n([C@@H]2O[C@H](CO)[C@@H](O)[C@H]2O)cc1C#CI [Compound 12b, 5-(2-Iodoethynyl)-uridine]	> 100 µM	> 200 µM	> 200 µM	<1	> 100 µM	148 µM	> 100 µM	–
CC(=O)OC[C@H]1O[C@@H](n2cc(C(Br)=CBr)c(=O)[nH]c2=O)C[C@@H]1OC(C)=O	–	–	–	–	–	–	–	79 to 81 °C
O=c1[nH]c(=O)n([C@H]2C[C@H](O)[C@@H](CO)O2)cc1/C(Cl)=C\I [Compound 16a, (E)-5-(1-Chloro-2-iodovinyl)-2′-deoxyuridine]	14.8 µM	79.8 µM	> 207 µM	2.7	1.4 µM	213 µM	3.2 µM	–
O=c1[nH]c(=O)n([C@@H]2O[C@H](CO)C[C@H]2O)cc1/C(Br)=C\Br [Compound 17c, (E)-5-(1,2-Dibromovinyl)-3′-deoxyuridine]	79.3 µM	> 200 µM	> 200 µM	≦1	7.8 µM	> 200 µM	> 100 µM	–
CC(=O)OC[C@H]1O[C@@H](n2cc(/C(Br)=C\I)c(=O)[nH]c2=O)[C@H](OC(C)=O)[C@@H]1OC(C)=O	–	–	–	–	–	–	–	86 to 88 °C
